How the values were obtained:
Assay type in all cases: functional
Escherichia coli [1] = test: Antibacterial activity Escherichia coli assessed as bacterial growth inhibition measured after 24 hrs by broth microdilution assay
Pseudomonas aeruginosa [2] = test: Antibacterial activity Pseudomonas aeruginosa assessed as bacterial growth inhibition measured after 24 hrs by broth microdilution assay
Staphylococcus aureus [3] = test: Antibacterial activity Staphylococcus aureus assessed as bacterial growth inhibition measured after 24 hrs by broth microdilution assay
Enterococcus faecalis = test: Antibacterial activity Enterococcus faecalis assessed as bacterial growth inhibition measured after 24 hrs by broth microdilution assay
[4] = test system: Mycobacterium tuberculosis; test: Antimycobacterial activity against multidrug Mycobacterium tuberculosis assessed as bacterial growth inhibition by LJ slant assay
[5] = test system: Mycobacterium tuberculosis; test: Antimycobacterial activity against extensive drug Mycobacterium tuberculosis assessed as bacterial growth inhibition by LJ slant assay
Pseudomonas aeruginosa [6] = test: Antibacterial activity against clinical isolate multi drug resistant Pseudomonas aeruginosa PA259-96918 assessed as bacterial growth inhibition measured after 18 hrs by broth microdilution assay
Pseudomonas aeruginosa [7] = test: Antibacterial activity against clinical isolate multi drug resistant Pseudomonas aeruginosa PA260-97103 assessed as bacterial growth inhibition measured after 18 hrs by broth microdilution assay
Pseudomonas aeruginosa [8] = test: Antibacterial activity against clinical isolate multi drug resistant Pseudomonas aeruginosa PA262-101856 assessed as bacterial growth inhibition measured after 18 hrs by broth microdilution assay
Pseudomonas aeruginosa [9] = test: Antibacterial activity against clinical isolate multi drug resistant Pseudomonas aeruginosa PA264-104354 assessed as bacterial growth inhibition measured after 18 hrs by broth microdilution assay
Pseudomonas aeruginosa [10] = test: Antibacterial activity against multi drug resistant Pseudomonas aeruginosa clinical isolate 100036 assessed as bacterial growth inhibition measured after 18 hrs by broth microdilution assay
Acinetobacter baumannii [11] = test: Antibacterial activity against clinical isolate multi drug resistant Acinetobacter baumannii AB027 assessed as bacterial growth inhibition measured after 18 hrs by broth microdilution assay
Acinetobacter baumannii [12] = test: Antibacterial activity against clinical isolate multi drug resistant Acinetobacter baumannii AB031 assessed as bacterial growth inhibition measured after 18 hrs by broth microdilution assay
Acinetobacter baumannii [13] = test: Antibacterial activity against multi drug resistant Acinetobacter baumannii clinical isolate 92247 assessed as bacterial growth inhibition measured after 18 hrs by broth microdilution assay
Acinetobacter baumannii [14] = test: Antibacterial activity against clinical isolate multi drug resistant Acinetobacter baumannii LAC-4 assessed as bacterial growth inhibition measured after 18 hrs by broth microdilution assay
Escherichia coli [15] = test: Antibacterial activity against multi drug resistant Escherichia coli clinical isolate 94393 assessed as bacterial growth inhibition measured after 18 hrs by broth microdilution assay
Escherichia coli [16] = test: Antibacterial activity against multi drug resistant Escherichia coli clinical isolate 94474 assessed as bacterial growth inhibition measured after 18 hrs by broth microdilution assay
Escherichia coli [17] = test: Antibacterial activity against multi drug resistant Escherichia coli clinical isolate 107115 assessed as bacterial growth inhibition measured after 18 hrs by broth microdilution assay
Klebsiella pneumoniae [18] = test: Antibacterial activity against multi drug resistant Klebsiella pneumoniae clinical isolate 113250 assessed as bacterial growth inhibition measured after 18 hrs by broth microdilution assay
Klebsiella pneumoniae [19] = test: Antibacterial activity against multi drug resistant Klebsiella pneumoniae clinical isolate 113254 assessed as bacterial growth inhibition measured after 18 hrs by broth microdilution assay
Klebsiella pneumoniae [20] = test: Antibacterial activity against multi drug resistant Klebsiella pneumoniae clinical isolate 116381 assessed as bacterial growth inhibition measured after 18 hrs by broth microdilution assay
Enterobacter cloacae [21] = test: Antibacterial activity against multi drug resistant Enterobacter cloacae clinical isolate 117029 assessed as bacterial growth inhibition measured after 18 hrs by broth microdilution assay
Enterobacter cloacae [22] = test: Antibacterial activity against multi drug resistant Enterobacter cloacae clinical isolate 118564 assessed as bacterial growth inhibition measured after 18 hrs by broth microdilution assay
Enterobacter cloacae [23] = test: Antibacterial activity against multi drug resistant Enterobacter cloacae clinical isolate 121187 assessed as bacterial growth inhibition measured after 18 hrs by broth microdilution assay
Escherichia coli [24] = test: Antibacterial activity Escherichia coli ATCC 25922 assessed as bacterial growth inhibition by broth microdilution assay
Staphylococcus aureus [25] = test: Antibacterial activity Staphylococcus aureus ATCC 25923 assessed as bacterial growth inhibition by broth microdilution assay
Staphylococcus aureus [26] = test: Antibacterial activity against methicillin resistant Staphylococcus aureus assessed as bacterial growth inhibition by two fold serial dilution assay
Pseudomonas aeruginosa [27] = test: Antibacterial activity against Pseudomonas aeruginosa assessed as bacterial growth inhibition by two fold serial dilution assay

Measured: MIC

C[C@H](NC(=O)c1cc(=O)[nH]c2ccccc12)C(=O)O
620 µg/mL: Escherichia coli [1] | Pseudomonas aeruginosa [2] | Staphylococcus aureus [3] | Enterococcus faecalis

NC[C@@H]1O[C@@H](O[C@@H]2[C@@H](OCCCCCCCN3CCN(c4cc5c(cc4F)c(=O)c(C(=O)O)cn5C4CC4)CC3)[C@H](O[C@@H]3O[C@@H](CO)[C@H](O)[C@@H](N)[C@@H]3O)[C@@H](N)C[C@H]2N)[C@@H](N)C[C@H]1O
≥ 16 µg/mL: [4] | [5] | Pseudomonas aeruginosa [6] | Pseudomonas aeruginosa [7] | Pseudomonas aeruginosa [8] | Pseudomonas aeruginosa [9] | Pseudomonas aeruginosa [10] | Acinetobacter baumannii [11] | Acinetobacter baumannii [12] | Acinetobacter baumannii [13] | Acinetobacter baumannii [14] | Escherichia coli [15] | Escherichia coli [16] | Escherichia coli [17] | Klebsiella pneumoniae [18] | Klebsiella pneumoniae [19] | Klebsiella pneumoniae [20] | Enterobacter cloacae [21] | Enterobacter cloacae [22] | Enterobacter cloacae [23]

C[C@@H](NC(=O)C(Cl)Cl)C(=O)N1CCN(c2cc3c(cc2F)c(=O)c(C(=O)O)cn3C2CC2)CC1
0.167 µg/mL: Staphylococcus aureus [25]
0.082 µg/mL: Escherichia coli [24]

COc1c(N2CCN(C(=O)CN3CCN(CC(=O)O)CCN(CC(=O)O)CCN(CC(=O)O)CC3)C(C)C2)c(F)cc2c(=O)c(C(=O)O)cn(C3CC3)c12 (stereo not drawn)
1.56 µg/mL: Staphylococcus aureus [26]
3.12 µg/mL: Pseudomonas aeruginosa [27]

From ChEMBL document CHEMBL5360532, “Current scenario of quinolone hybrids with potential antibacterial activity against ESKAPE pathogens” (Eur J Med Chem, 2023)
